{
  "source": "patent US11198715B2",
  "about": "“Selective Bfl-1 peptides” (MASSACHUSETTS INSTITUTE OF TECHNOLOGY, priority 2016, dated 2021)",
  "key": {"[1]": {"biological_target": "T1, Bfl-1 (Homo sapiens, UniProt Q16548)", "T1 sequence (Q16548 1-175)": "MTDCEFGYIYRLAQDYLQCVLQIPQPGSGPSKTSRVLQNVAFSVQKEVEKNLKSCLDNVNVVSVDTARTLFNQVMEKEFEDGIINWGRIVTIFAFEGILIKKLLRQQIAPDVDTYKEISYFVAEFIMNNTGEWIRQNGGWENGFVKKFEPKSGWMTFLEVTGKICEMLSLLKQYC", "assay": "Competition fluorescence polarization (anisotropy) binding assay with fluoresceinated Bim", "conditions": "for selective binding to Bfl-1 over other Bcl-2 family proteins: Ki from competition assays with fluoresceinated Bim; for affinity for Bfl-1 relative to PUMA / specificity for Bfl-1 relative to PUMA: inhibition constants, 23-residue peptides (FIG. 2I)", "protocol": "Fluorescence polarization assays were performed in order to measure the binding abilities of the peptide constructs. Competition fluorescence polarization experiments were performed by titrating 10-0 μM of unlabeled peptide into 50 nM receptor with […] fluorecinated Bim (fluorescein-[…]) in FP buffer (25 mM Tris pH 7.8, 50 mM NaCl, 1 mM EDTA, 0.001% v/v Triton-X, 5% DMSO). C-myc-tagged receptors were used for all Bcl-2 homologs. Plates were mixed at room temperature for 3 h. Experiments were done in triplicate.\nKi values were obtained from the competition assays with fluoresceinated Bim peptide."}, "[2]": {"system": "BCR-ABL-expressing B-ALL cell lines engineered to depend on Bcl-2, Bcl-xL, Mcl-1 or Bfl-1", "assay": "Whole-cell BH3 profiling (JC-1 mitochondrial depolarization, MOMP)", "format": "cell-based", "set-up": "cross reactivity in non-Bfl-1 dependent lines: dose or concentration left out as unconfirmed", "conditions": "JC-1 readout; for mitochondrial depolarization in cell lines dependent on Mcl-1, Bcl-2, Bcl-xL or Bfl-1: FS peptides at 100 nM", "protocol": "A whole-cell BH3 profiling assay was used to test the specificity of the peptide constructs in several cell lines with known dependencies on anti-apoptotic proteins, including Bcl-2, Mcl-1, Bcl-xL, or Bfl-1. The creation and characterization of the BCR-ABL-expressing B-lineage acute lymphoblastic leukemia suspension cell lines with engineered dependencies on human versions of anti-apoptotic genes is detailed in Koss et al., Oncotarget, 7:11500-11511, 2016. Cells were grown in RPMI (Life Technologies, Carlsbad, Calif.) with 10% fetal bovine serum, 2 mM L-glutamine, 10 mL/L 100× Pen/Strep (Life Technologies #15140122), 25 mM HEPES and 10 mL/L 100×NEAA (Life Technologies, 11140050). The adherent cell lines PC-3 (RRID: CVCL_0035) and SF295 (RRID: CVCL_1690) are from the NCI60 panel (Lorenzi et al., 2009) and were grown in RPMI (Life Technologies) with 10% fetal bovine serum, 2 mM L-glutamine and 10 mL/L 100× Pen/Strep (Life Technologies #15140122). Cell line identities were confirmed by STR profiling. The Lookout Mycoplasma PCR detection kit (Sigma) was used to detect mycoplasma infection. Mycoplasma was only detected in the PC-3 cell line, and internal controls were used to account for this phenotype.\nPeptides were titrated by serial dilution in MEB buffer (150 mM Mannitol, 10 mM HEPES-KOH pH 7.5, 50 mM KCl, 0.02 mM EGTA, 0.02 mM EDTA, 0.1% BSA and 5 mM Succinate) containing 20 […], […] and 10 mM 2-mercaptoethanol in 384-well plates. Controls for no depolarization (1% DMSO) and complete depolarization with the mitochondrial oxidative phosphorylation uncoupler FCCP ([…]) were included for data normalization. Cells were suspended at 1.67×10^6 cells/mL in MEB. […] was added to each well containing […] of treatment solution. Fluorescence emission was measured every 5 min for 3 hours at […] with 525 nm excitation on a Tecan Safire2. To produce percent depolarization, the area under the resultant curve was calculated and normalized to the assay controls. Peptide titration curves were fit to sigmoidal dose-response curves using Graphpad PRISM seven to obtain EC50 values.\nAs depicted in FIG. 9A, in this assay, permeabilized cells were contacted with increasing doses of the BH3 peptides, and mitochondrial outer membrane permeabilization (MOMP) was monitored using a voltage-sensitive dye (JC-1). The apoptotic sensitivity of BCR-ABL-expressing B-lineage acute lymphoblastic leukemia (B-ALL) cell lines engineered to depend on Bcl-2, Bcl-xL, Mcl-1 or Bfl-1 overexpression for survival."}, "[3]": {"biological_target": "Bcl-xL", "assay": "Ki (nM) | Bcl-xL"}, "[4]": {"system": "BCR-ABL-expressing B-ALL cell lines engineered to depend on Bcl-2, Bcl-xL, Mcl-1 or Bfl-1", "assay": "iBH3 profiling, cytochrome c release", "format": "cell-based", "set-up": "cross reactivity in non-Bfl-1 dependent lines: dose or concentration left out as unconfirmed", "protocol": "As an additional test for on-pathway activity, cytochrome c release was measured in the same engineered cell lines in response to peptide treatment, using iBH3 profiling (see Ryan et al., Biol. Chem., 397:671-678, 2016). Cells were suspended in MEB buffer (150 mM mannitol, 50 mM KCl, 10 mM HEPES, 5 mM succinic acid, […], 0.1% BSA, final pH 7.4) at 0.5*10^6 cells/mL (adherent lines) or 2*10^6 cells/mL (suspension lines). Cell suspension was added to a 384 non-binding well plate ([…]) containing peptides at 2× final concentration in MEB with […]. Plates were incubated at 25° C. for 1 hour. To terminate exposure, […] in PBS was added to each well, plates were incubated for 10 minutes before addition of […] (1.7 M Tris, 1.25 M glycine, pH 9.1) for 5 min. […] The median fluorescence of the cytochrome c channel of Hoechst positive singlets was recorded by an IntelliCyt iQue Screener Plus. Cytochrome c release was determined by normalizing the median fluorescence intensity (MFI) data to positive control wells (Alamethicin) and negative control wells (DMSO) as follows: Cytochrome release=1−(MFIsample−MFIAlamethicin)/(MFIDMSO−MFIAlamethicin)"}},
  "data": [
    {"substance": "Ac-QWVREIAAGLRLAADNVNAQLER-NH2 [FS1]", "values": [
      {"measurement": "selective binding to Bfl-1 over other Bcl-2 family proteins", "setting": "[1]", "value": "bound selectivity to Bfl-1 over other Bcl-2 family proteins"},
      {"measurement": "affinity for Bfl-1 relative to PUMA", "setting": "[1]", "value": "reduced affinity for Bfl-1 relative to PUMA"},
      {"measurement": "specificity for Bfl-1 relative to PUMA", "setting": "[1]", "value": "significantly increased specificity"},
      {"measurement": "specificity for Bfl-1 relative to Bcl-xL, Bcl-2, Bcl-w and Mcl-1", "setting": "[1]; ratio of Ki values", "value": "at least 150 fold"},
      {"measurement": "mitochondrial depolarization in cell lines dependent on Mcl-1, Bcl-2, Bcl-xL or Bfl-1", "setting": "[2]", "value": "promoted depolarization only in Bfl-1 dependent cells"},
      {"measurement": "Ki", "setting": "[3]", "value": "2720 ± 713", "unit": "nM"}
    ]},
    {"substance": "QWIREIAAGLRRFADILNAQVER [FS3]", "values": [
      {"measurement": "selective binding to Bfl-1 over other Bcl-2 family proteins", "setting": "[1]", "value": "bound selectivity to Bfl-1 over other Bcl-2 family proteins"},
      {"measurement": "affinity for Bfl-1 relative to PUMA", "setting": "[1]", "value": "reduced affinity for Bfl-1 relative to PUMA"},
      {"measurement": "specificity for Bfl-1 relative to PUMA", "setting": "[1]", "value": "significantly increased specificity"},
      {"measurement": "cross reactivity in non-Bfl-1 dependent lines", "setting": "[2]", "value": "significant cross reactivity"},
      {"measurement": "potency of mitochondrial depolarization, comparison", "setting": "[2]", "value": "more potently than FS1 or FS2"},
      {"measurement": "mitochondrial depolarization in cell lines dependent on Mcl-1, Bcl-2, Bcl-xL or Bfl-1", "setting": "[2]", "value": "promoted depolarization only in Bfl-1 dependent cells"},
      {"measurement": "potency in cytochrome c release, comparison", "setting": "[4]", "value": "more potently than FS1 or FS2"},
      {"measurement": "cross reactivity in non-Bfl-1 dependent lines", "setting": "[4]; cytochrome c release", "value": "significant cross reactivity"}
    ]},
    {"substance": "QWVREIAAGLRRAADDVNAQVER [FS2]", "values": [
      {"measurement": "selective binding to Bfl-1 over other Bcl-2 family proteins", "setting": "[1]", "value": "bound selectivity to Bfl-1 over other Bcl-2 family proteins"},
      {"measurement": "affinity for Bfl-1 relative to PUMA", "setting": "[1]", "value": "reduced affinity for Bfl-1 relative to PUMA"},
      {"measurement": "specificity for Bfl-1 relative to PUMA", "setting": "[1]", "value": "significantly increased specificity"},
      {"measurement": "mitochondrial depolarization in cell lines dependent on Mcl-1, Bcl-2, Bcl-xL or Bfl-1", "setting": "[2]", "value": "promoted depolarization only in Bfl-1 dependent cells"}
    ]}
  ]
}
